Laboratory results: PubChem BioAssay AID2060485 (Molecular Pharmacology Branch, DTP, NCI, 2025)

System: A375 multi-cell spheroids with HUVEC/MSC, viability
Assay: Anticancer human tumor A375 cell line growth inhibition [GQUAD];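 also: spheroids exposed to compounds for seven days before readout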
Conditions: for IC50: curve of first compound; for viability, T/C: stronger effect = lower value; active = viability on the fitted dose curve at most 10% of control; inactive = the rest
Outline: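 Multi-cell-type spheroids of tumor cells with HUVEC and mesenchymal stem cells, treated with drug combinations. Concentrations descend in half-log steps from near clinical Cmax, or from 10 microM where Cmax is unknown; viability read-out.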

[1] = second compound 0.0316 µM, first compound 0.0316 µM
[2] = second compound 0.0316 µM, first compound 0.1 µM
[3] = second compound 0.0316 µM, first compound 0.316 µM
[4] = second compound 0.0316 µM, first compound 1 µM
[5] = second compound 0.0316 µM, first compound 3.16 µM
[6] = second compound 0.0316 µM, first compound 10 µM
[7] = second compound 0.1 µM, first compound 0.0316 µM
[8] = second compound 0.1 µM, first compound 0.1 µM
[9] = second compound 0.1 µM, first compound 0.316 µM
[10] = second compound 0.1 µM, first compound 1 µM
[11] = second compound 0.1 µM, first compound 3.16 µM
[12] = second compound 0.1 µM, first compound 10 µM
[13] = second compound 0.316 µM, first compound 0.0316 µM
[14] = second compound 0.316 µM, first compound 0.1 µM
[15] = second compound 0.316 µM, first compound 0.316 µM
[16] = second compound 0.316 µM, first compound 1 µM
[17] = second compound 0.316 µM, first compound 3.16 µM
[18] = second compound 0.316 µM, first compound 10 µM
[19] = second compound 1 µM, first compound 0.0316 µM
[20] = second compound 1 µM, first compound 0.1 µM
[21] = second compound 1 µM, first compound 0.316 µM
[22] = second compound 1 µM, first compound 1 µM
[23] = second compound 1 µM, first compound 3.16 µM
[24] = second compound 1 µM, first compound 10 µM
[25] = second compound 3.16 µM, first compound 0.0316 µM
[26] = second compound 3.16 µM, first compound 0.1 µM
[27] = second compound 3.16 µM, first compound 0.316 µM
[28] = second compound 3.16 µM, first compound 1 µM
[29] = second compound 3.16 µM, first compound 3.16 µM
[30] = second compound 3.16 µM, first compound 10 µM
[31] = second compound 10 µM, first compound 0.0316 µM
[32] = second compound 10 µM, first compound 0.1 µM
[33] = second compound 10 µM, first compound 0.316 µM
[34] = second compound 10 µM, first compound 1 µM
[35] = second compound 10 µM, first compound 3.16 µM
[36] = second compound 10 µM, first compound 10 µM

CC(C)(O)C1CCC(Nc2ccc3ncc(-c4cccc(C(F)(F)F)c4)n3n2)CC1 (stereo unspecified) + Cc1[nH]c2ccc(F)cc2c1-c1nc2c3cccnc3c3ncccc3c2[nH]1
inactive: viability, T/C [1] 99.5% | viability, T/C [2] 100% | viability, T/C [3] 96.5% | viability, T/C [4] 112% | viability, T/C [5] 94.4% | viability, T/C [6] 92.1% | viability, T/C [7] 103% | viability, T/C [8] 110% | viability, T/C [9] 97.3% | viability, T/C [10] 113% | viability, T/C [11] 84.7% | viability, T/C [12] 87.6% | viability, T/C [13] 98.5% | viability, T/C [14] 102% | viability, T/C [15] 105% | viability, T/C [16] 100% | viability, T/C [17] 77.6% | viability, T/C [18] 86.1% | viability, T/C [19] 106% | viability, T/C [20] 104% | viability, T/C [21] 101% | viability, T/C [22] 93.6% | viability, T/C [23] 47.4% | viability, T/C [24] 73.7% | viability, T/C [25] 49.7% | viability, T/C [26] 52.3% | viability, T/C [27] 39% | viability, T/C [28] 30.2% | viability, T/C [29] 10.4% | viability, T/C [30] 20.4% | viability, T/C [31] 76.7% | viability, T/C [32] 82.9% | viability, T/C [33] 72.3% | viability, T/C [34] 46.9% | viability, T/C [35] 16.2% | viability, T/C [36] 42.3%
0.845 µM: IC50 (second compound 10 µM)
0.0667 µM: IC50 (second compound 3.16 µM)
> 10 µM: IC50 (second compound 0.0316 µM) | IC50 (second compound 0.1 µM) | IC50 (second compound 0.316 µM) | IC50 (second compound 1 µM)

CCCS(=O)(=O)Nc1ccc(F)c(C(=O)c2c[nH]c3ncc(-c4ccc(Cl)cc4)cc23)c1F + Cc1[nH]c2ccc(F)cc2c1-c1nc2c3cccnc3c3ncccc3c2[nH]1
inactive: viability, T/C [1] 47.1% | viability, T/C [2] 14.9% | viability, T/C [7] 40.4% | viability, T/C [8] 15.4% | viability, T/C [13] 43.6% | viability, T/C [14] 13.7% | viability, T/C [19] 32% | viability, T/C [20] 14.6% | viability, T/C [25] 24.6% | viability, T/C [26] 10% | viability, T/C [31] 30.4% | viability, T/C [32] 13.4%
< 0.0316 µM: IC50 (second compound 0.0316 µM) | IC50 (second compound 0.1 µM) | IC50 (second compound 0.316 µM) | IC50 (second compound 1 µM) | IC50 (second compound 3.16 µM) | IC50 (second compound 10 µM)
active: viability, T/C [3] 7.54% | viability, T/C [4] 5.63% | viability, T/C [5] 6% | viability, T/C [6] 6.44% | viability, T/C [9] 8.57% | viability, T/C [10] 6.32% | viability, T/C [11] 5.78% | viability, T/C [12] 5.39% | viability, T/C [15] 8.7% | viability, T/C [16] 6.15% | viability, T/C [17] 5.37% | viability, T/C [18] 4.44% | viability, T/C [21] 7.98% | viability, T/C [22] 5.57% | viability, T/C [23] 5% | viability, T/C [24] 1.74% | viability, T/C [27] 6.35% | viability, T/C [28] 3.57% | viability, T/C [29] 1.79% | viability, T/C [30] 0.23% | viability, T/C [33] 7.1% | viability, T/C [34] 4.44% | viability, T/C [35] 3.27% | viability, T/C [36] 0.2%

COc1ncnc(C2CC2)c1-c1ncc2cnn(Cc3ccc(-c4nc(C(F)(F)F)cn4C(C)C)cc3)c2n1 + Cc1[nH]c2ccc(F)cc2c1-c1nc2c3cccnc3c3ncccc3c2[nH]1
> 10 µM: IC50 (second compound 0.0316 µM) | IC50 (second compound 0.1 µM) | IC50 (second compound 0.316 µM) | IC50 (second compound 1 µM)
inactive: viability, T/C [1] 102% | viability, T/C [2] 107% | viability, T/C [3] 109% | viability, T/C [4] 108% | viability, T/C [5] 107% | viability, T/C [6] 106% | viability, T/C [7] 119% | viability, T/C [8] 106% | viability, T/C [9] 93.8% | viability, T/C [10] 112% | viability, T/C [11] 107% | viability, T/C [12] 123% | viability, T/C [13] 104% | viability, T/C [14] 104% | viability, T/C [15] 108% | viability, T/C [16] 106% | viability, T/C [17] 112% | viability, T/C [18] 108% | viability, T/C [19] 104% | viability, T/C [20] 106% | viability, T/C [21] 99.9% | viability, T/C [22] 106% | viability, T/C [23] 100% | viability, T/C [24] 104% | viability, T/C [25] 72.2% | viability, T/C [26] 72.5% | viability, T/C [27] 77% | viability, T/C [28] 61% | viability, T/C [29] 54.1% | viability, T/C [30] 34.3% | viability, T/C [31] 88.9% | viability, T/C [32] 92.9% | viability, T/C [33] 87.2% | viability, T/C [34] 79.7% | viability, T/C [35] 61.3% | viability, T/C [36] 43.5%
6.58 µM: IC50 (second compound 10 µM)
3.73 µM: IC50 (second compound 3.16 µM)
